In PMC12292445, “Physiologically Based Pharmacokinetic Modeling for Predicting Drug Levels After Bariatric Surgery: Vardenafil Exposure Before vs. After Gastric Sleeve/Bypass” (Biomolecules, 2025):
≈ marks a conversion by molar mass, not a printed value. Like-named read-outs stand apart in the source and are kept apart here.

Experiments:
[1] = stated in discussion, no source given; cited from earlier work
[2] = physchem; assay type: physicochemical
Description: The equilibrium solubility of vardenafil was determined by the previously described shake-flask method. Four different medium pHs were used: pH 1 and pH 3 (0.2 M maleic acid), pH 5 (0.2 M acetic acid), and pH 7 (0.2 M dihydrogen phosphate). Quadruplet (n = 4) samples of each buffer pH were prepared with drug powder added in excess, until saturation, to vials with 500 µL medium solution. Vial incubation was at 37 °C, with 200 rpm sample shaking for 24 h (Orbital Shaker Incubator, MRC Laboratory Instruments, Holon, Israel). Sample contents were then transferred to Eppendorf tubes for a 10 min centrifugation (Centrifuge 5430 R, Eppendorf®, Hamburg, Germany) at 20,817 rcf and 37 °C. Obtained supernatants were diluted as needed and immediately analyzed by UPLC-PDA (Table 1).

[3] = physchem; assay type: physicochemical; details: human; for solubility: thermodynamic from solid
Description: The equilibrium solubility of vardenafil in gastric content was also tested using the shake-flask method mentioned above, which followed a procedure that had been recently described. In short, excess drug was added to glass vials containing samples of gastric content aspirated from three patients (1 SG, 1 RYGB, and 1 OAGB) during bariatric procedure time. Aspiration was performed through the nasogastric tube at three time points: before, immediately after , and 24 h post-surgery. Study protocol approval was given by the Ben-Gurion University School of Medicine institutional review board (institutional board request number 0248-18-SOR), and informed consent was obtained from all the participants prior to surgery. Following gastric content collection, pH was immediately measured and recorded. […] As vardenafil hydrochloride powder modified the pH of the post-bariatric gastric fluid, pH was adjusted with a small volume pH 7 buffer, as necessary.

[4] = In vitro dissolution of whole tablets under pre- vs post-bariatric gastric conditions; assay type: physicochemical; details: Levitra 20 mg tablet
Description: The dissolution of whole tablet vardenafil (20 mg) products was studied in three different conditions, as previously described (n = 4 for each condition): (1) pH 1 maleic acid, 250 mL medium (pre-surgery conditions), with the USP dissolution apparatus II (Premiere 5100, Distek®, North Brunswick, NJ, USA), at 100 rpm paddle rotation; […] This rotation velocity was calculated, addressing the following parameters: the paddle size (D), volume of fluid (V), and agitation strength (ε), as follows: εlong/εshort=RPMlong3 × Dlong5/Vlong/RPMshort3 × Dshort5/Vshort These adjusted experimental conditions mimic pre- vs. post-bariatric intragastric dissolution conditions, including the pH, temperature, fluid volume, and contractility force, and were thus preferred over standard, compendial dissolution methods. Next, 300 µL samples were drawn for 90 min at 10 different time points and then filtered prior to ultra-performance liquid chromatography (UPLC) analysis (Table 1).

[5] = clinical
Description: Values were either obtained from the literature, in silico predictions (ADMET Predictor® module, version 10.4.0.0; Simulations Plus Inc., Lancaster, CA, USA) based on the drug’s molecular structure, or experimentally determined. pH-dependent solubility data were input as an .spd file and used to fit the solubility factors in the solubility model. Drug dissolution along the GIT was calculated using the software default Johnson equation [58] based on the drug’s solubility and particle size. With the lack of data on commercial product drug particle size, 100 µm was chosen as an approximate value for all simulations. Regarding poor aqueous solubility, bile salts’ effect on drug solubility/dissolution was also accounted for. The drug precipitation time was set as the default 900 s. […] The distribution and elimination PK parameters of vardenafil were based on available data of in vivo plasma concentration over time following IV and PO drug administration, using the software-integrated PKPlus^TM module and optimized further while keeping the final values within the reported literature range (Table 3).

[6] = parameters: method as in earlier work; details: healthy fasted humans, digitized mean profile, cited from earlier work
[7] = estimated with PKPlus from in vivo IV and oral data, then optimized

## CCCc1nn(C)c2c(=O)[nH]c(-c3cc(S(=O)(=O)N4CCN(C)CC4)ccc3OCC)nc12 [sildenafil]
[1]
  pKa: ~ 7

## CCCc1nc(C)c2c(=O)[nH]c(-c3cc(S(=O)(=O)N4CCN(CC)CC4)ccc3OCC)nn12 [vardenafil]
[2]; 37 °C, pH 3, aqueous buffer, thermodynamic from solid
  solubility at 24 h: > 30 mg/mL
[2]; 37 °C, pH 5, aqueous buffer, thermodynamic from solid
  solubility at 24 h: 27.4 mg/mL (≈ 56.1 mM)
[2]; 37 °C, pH 7, aqueous buffer, thermodynamic from solid
  solubility at 24 h: 0.05 mg/mL (≈ 0.102 mM)
[2]; 24 h
  Decrease in saturation solubility: over 600 fold
[2]; 24 h, pH 1
  Solubility at 37 °C: 30 mg/mL (≈ 61.4 mM)
[2]; 24 h, pH 3
  Solubility at 37 °C: 30 mg/mL (≈ 61.4 mM)
[2]; pH 1
  solubility at 24 h: > 30 mg/mL
[3]
  Lower ex vivo solubility after vs. before the surgery: > 500 fold
[3]; pH 2, plasma or biological fluid
  solubility: > 30 mg/mL
[3]; pH 7, plasma or biological fluid
  solubility: 0.06 mg/mL (≈ 0.123 mM)
[4]; post-OAGB conditions, pH 7, 50 mL
  Dissolution (dose dissolved): 4%
[4]; post-SG conditions, pH 5, 50 mL
  Dissolution (dose dissolved): 100%
[4]; pre-surgery conditions, pH 1, 250 mL
  Dissolution (dose dissolved): 100%
[5]; [7]
  Distribution constant k12: 3.090 h⁻¹
  Distribution constant k13: 0.448 h⁻¹
  Distribution constant k21: 2.100 h⁻¹
  Distribution constant k31: 0.250 h⁻¹
[5]; human
  Vd: 0.8 L/kg
  clearance: 15.4 mL/min/kg
[1]
  pKa: ~ 7
[6]; 10 mg single oral dose
  AUC0−inf, observed: 27.29 ng·h/mL
  Cmax, observed: 7.20 ng/mL
  Tmax, observed: 57 min
[6]; 20 mg single oral dose
  AUC0−inf, observed: 41.86 ng·h/mL
  Cmax, observed: 16.30 ng/mL
  Tmax, observed: 46.8 min
